Assay results taken from US4110327A, “2,3 Diketo-piperazinocarbonylamino alkanoic acids and derivatives” (Toyama Chemical Co., Ltd., priority 1974, dated 1978).
Values after ≈ are worked out from the molar mass of the structure shown.

Key:
Assay type in all cases: cell-based
[1] = test system: Proteus morganii; experiment: MIC against clinical isolates; settings: clinical isolate, unit assumed
[2] = test system: Pseudomonas aeruginosa; experiment: MIC against clinical isolates; settings: unit assumed
[3] = test system: Escherichia coli; experiment: MIC against clinical isolates; settings: unit assumed
[4] = test system: Klebsiella pneumoniae; experiment: MIC against standard strain, plate method; settings: unit assumed
Summary of the method: (§1)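 Minimum inhibitory concentrations were determined on agar plates of heart infusion medium (pH 7.4) inoculated with 10^4 cells per plate.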

[5] = test system: Escherichia coli NIHJ; experiment: MIC against standard strain, plate method; settings: unit assumed
Summary of the method: as §1

[6] = test system: Pseudomonas aeruginosa I.F.O.; experiment: MIC against standard strain, plate method; settings: unit assumed
Summary of the method: as §1

[7] = test system: Proteus vulgaris 3027; experiment: MIC against standard strain, plate method; settings: Proteus vulgaris 3027, standard strain; unit assumed
Summary of the method: as §1

[8] = test system: Staphylococcus aureus 209p; experiment: MIC against standard strain, plate method; settings: unit assumed
Summary of the method: as §1

[9] = test system: Proteus vulgaris; experiment: MIC against clinical isolates; settings: clinical isolate, unit assumed
[10] = test system: Klebsiella pneumoniae; experiment: MIC against clinical isolates; settings: unit assumed
[11] = test system: Proteus mirabilis; experiment: MIC against clinical isolates; settings: clinical isolate, unit assumed
[12] = test system: Staphylococcus aureus; experiment: MIC against clinical isolates; settings: unit assumed
[13] = test system: Proteus rettgeri; experiment: MIC against clinical isolates; settings: clinical isolate, unit assumed

With `CC(=O)OCC1=C(C(=O)O)N2C(=O)C(NC(=O)C(NC(=O)N3CCN(C)C(=O)C3=O)c3ccccc3)C2SC1` (single isomer, unassigned) [compound 60] the MIC [1] was 3.13 µg/mL (≈ 5.59 µM), the MIC ([2]; clinical isolate GN 82) was 50 µg/mL (≈ 89.4 µM) and the MIC ([2]; clinical isolate GN 163) was 50 µg/mL (≈ 89.4 µM). For the same compound, the MIC ([2]; clinical isolate GN 221) was 12.5 µg/mL (≈ 22.3 µM), the MIC ([2]; clinical isolate GN 244) was 50 µg/mL (≈ 89.4 µM) and the MIC ([2]; clinical isolate GN 376) was 50 µg/mL (≈ 89.4 µM). It also gave an MIC ([2]; clinical isolate GN 383) of 50 µg/mL (≈ 89.4 µM), an MIC ([2]; clinical isolate GN 1035) of 200 µg/mL (≈ 357 µM) and an MIC ([2]; clinical isolate GN 1091) of 50 µg/mL (≈ 89.4 µM). It also gave an MIC ([2]; clinical isolate GN 2565) of 100 µg/mL (≈ 179 µM), an MIC ([2]; clinical isolate GN 2987) of 50 µg/mL (≈ 89.4 µM) and an MIC ([2]; clinical isolate S-1) of 200 µg/mL (≈ 357 µM). For the same compound, the MIC ([2]; clinical isolate S-2) was 100 µg/mL (≈ 179 µM), the MIC ([2]; clinical isolate S-3) was 100 µg/mL (≈ 179 µM) and the MIC ([2]; clinical isolate S-4) was 100 µg/mL (≈ 179 µM). It also gave an MIC ([3]; clinical isolate GN 3435) of 6.25 µg/mL (≈ 11.2 µM), an MIC ([3]; clinical isolate GN 3452) of 12.5 µg/mL (≈ 22.3 µM) and an MIC ([3]; clinical isolate GN 3465) of 100 µg/mL (≈ 179 µM). The MIC ([3]; clinical isolate GN 3481) was 6.25 µg/mL (≈ 11.2 µM), the MIC ([3]; clinical isolate GN 3611) was over 200 µg/mL and the MIC ([3]; clinical isolate K-1) was 6.25 µg/mL (≈ 11.2 µM). It also gave an MIC ([3]; clinical isolate K-2) of 12.5 µg/mL (≈ 22.3 µM), an MIC ([3]; clinical isolate K-3) of 200 µg/mL (≈ 357 µM) and an MIC ([3]; clinical isolate K-4) of 25 µg/mL (≈ 44.7 µM). The MIC [4] was 3.13 µg/mL (≈ 5.59 µM), the MIC [5] was under 0.1 µg/mL and the MIC [6] was 25 µg/mL (≈ 44.7 µM). The MIC [7] was 3.13 µg/mL (≈ 5.59 µM), the MIC [8] was 0.79 µg/mL (≈ 1.41 µM) and the MIC [9] was 1.56 µg/mL (≈ 2.79 µM). The MIC ([10]; clinical isolate GN 917) was 6.25 µg/mL (≈ 11.2 µM), the MIC ([10]; clinical isolate GN 4081) was 25 µg/mL (≈ 44.7 µM) and the MIC ([10]; clinical isolate GN 4117) was 25 µg/mL (≈ 44.7 µM). For the same compound, the MIC [11] was 3.13 µg/mL (≈ 5.59 µM), the MIC ([12]; clinical isolate F-1) was 3.13 µg/mL (≈ 5.59 µM) and the MIC ([12]; clinical isolate F-2) was 0.78 µg/mL (≈ 1.39 µM). For the same compound, the MIC ([12]; clinical isolate F-3) was 1.56 µg/mL (≈ 2.79 µM), the MIC ([12]; clinical isolate F-4) was 1.56 µg/mL (≈ 2.79 µM) and the MIC ([12]; clinical isolate F-5) was 50 µg/mL (≈ 89.4 µM). The MIC ([12]; clinical isolate MS 8588) was 1.56 µg/mL (≈ 2.79 µM), the MIC ([12]; clinical isolate MS 8596) was 0.78 µg/mL (≈ 1.39 µM) and the MIC ([12]; clinical isolate MS 8619) was 0.78 µg/mL (≈ 1.39 µM). It also gave an MIC ([12]; clinical isolate MS 8684) of 1.56 µg/mL (≈ 2.79 µM), an MIC ([12]; clinical isolate MS 8713) of 0.78 µg/mL (≈ 1.39 µM) and an MIC [13] of 6.25 µg/mL (≈ 11.2 µM).

`Cc1nnc(SCC2=C(C(=O)O)N3C(=O)C(NC(=O)C(NC(=O)N4CCN(C)C(=O)C4=O)c4ccccc4)C3SC2)s1` (single isomer, unassigned) [compound 62] showed an MIC [1] of 3.13 µg/mL (≈ 4.95 µM), an MIC ([2]; clinical isolate GN 82) of 100 µg/mL (≈ 158 µM) and an MIC ([2]; clinical isolate GN 163) of 50 µg/mL (≈ 79.1 µM). It also gave an MIC ([2]; clinical isolate GN 221) of 50 µg/mL (≈ 79.1 µM), an MIC ([2]; clinical isolate GN 244) of 100 µg/mL (≈ 158 µM) and an MIC ([2]; clinical isolate GN 376) of 100 µg/mL (≈ 158 µM). The MIC ([2]; clinical isolate GN 383) was 100 µg/mL (≈ 158 µM), the MIC ([2]; clinical isolate GN 1035) was 200 µg/mL (≈ 317 µM) and the MIC ([2]; clinical isolate GN 1091) was 100 µg/mL (≈ 158 µM). It also gave an MIC ([2]; clinical isolate GN 2565) of 100 µg/mL (≈ 158 µM), an MIC ([2]; clinical isolate GN 2987) of 50 µg/mL (≈ 79.1 µM) and an MIC ([2]; clinical isolate S-1) of 200 µg/mL (≈ 317 µM). For the same compound, the MIC ([2]; clinical isolate S-2) was 200 µg/mL (≈ 317 µM), the MIC ([2]; clinical isolate S-3) was 200 µg/mL (≈ 317 µM) and the MIC ([2]; clinical isolate S-4) was 200 µg/mL (≈ 317 µM). The MIC ([3]; clinical isolate GN 3435) was 6.25 µg/mL (≈ 9.89 µM), the MIC ([3]; clinical isolate GN 3452) was 6.25 µg/mL (≈ 9.89 µM) and the MIC ([3]; clinical isolate GN 3465) was 25 µg/mL (≈ 39.6 µM). It also gave an MIC ([3]; clinical isolate GN 3481) of 6.25 µg/mL (≈ 9.89 µM), an MIC ([3]; clinical isolate GN 3611) of 200 µg/mL (≈ 317 µM) and an MIC ([3]; clinical isolate K-1) of 6.25 µg/mL (≈ 9.89 µM). For the same compound, the MIC ([3]; clinical isolate K-2) was 12.5 µg/mL (≈ 19.8 µM), the MIC ([3]; clinical isolate K-3) was 200 µg/mL (≈ 317 µM) and the MIC ([3]; clinical isolate K-4) was 12.5 µg/mL (≈ 19.8 µM). For the same compound, the MIC [4] was 1.57 µg/mL (≈ 2.49 µM), the MIC [5] was under 0.1 µg/mL and the MIC [6] was 50 µg/mL (≈ 79.1 µM). For the same compound, the MIC [7] was 3.13 µg/mL (≈ 4.95 µM), the MIC [8] was 0.79 µg/mL (≈ 1.25 µM) and the MIC [9] was 3.13 µg/mL (≈ 4.95 µM). It also gave an MIC ([10]; clinical isolate GN 917) of 6.25 µg/mL (≈ 9.89 µM), an MIC ([10]; clinical isolate GN 4081) of 12.5 µg/mL (≈ 19.8 µM) and an MIC ([10]; clinical isolate GN 4117) of 25 µg/mL (≈ 39.6 µM). The MIC [11] was 6.25 µg/mL (≈ 9.89 µM), the MIC ([12]; clinical isolate F-1) was 3.13 µg/mL (≈ 4.95 µM) and the MIC ([12]; clinical isolate F-2) was 0.78 µg/mL (≈ 1.23 µM). For the same compound, the MIC ([12]; clinical isolate F-3) was 1.56 µg/mL (≈ 2.47 µM), the MIC ([12]; clinical isolate F-4) was 1.56 µg/mL (≈ 2.47 µM) and the MIC ([12]; clinical isolate F-5) was 12.5 µg/mL (≈ 19.8 µM). For the same compound, the MIC ([12]; clinical isolate MS 8588) was 1.56 µg/mL (≈ 2.47 µM), the MIC ([12]; clinical isolate MS 8596) was 0.78 µg/mL (≈ 1.23 µM) and the MIC ([12]; clinical isolate MS 8619) was 0.78 µg/mL (≈ 1.23 µM). For the same compound, the MIC ([12]; clinical isolate MS 8684) was 1.56 µg/mL (≈ 2.47 µM), the MIC ([12]; clinical isolate MS 8713) was 1.56 µg/mL (≈ 2.47 µM) and the MIC [13] was 6.25 µg/mL (≈ 9.89 µM).
